Reference: patent US20240148821A1, “PHARMACEUTICAL USE OF CYCLIC PEPTIDE COMPOUND” (CHUGAI SEIYAKU KABUSHIKI KAISHA, priority 2021, published 2024)
Numbered stars: 1 amine (or outer) side, 2 acyl side, 3 side chain; on linkers, the order of the positions; unused ones are H or OH. Bridge positions count the residues as written; N and C are the ends. Square brackets hold non-standard residues; d marks the D form. Peptide text beside a SMILES is read from it. * marks the point of attachment. hPhe(3,5-F2-4-CF3) = N[C@@H](CCc1cc(F)c(C(F)(F)F)c(F)c1)C(=O)O; hPhe(3-Cl-4-CF3) = N[C@@H](CCc1ccc(C(F)(F)F)c(Cl)c1)C(=O)O; NEtPhe(4-CF3) = CCN[C@@H](Cc1ccc(C(F)(F)F)cc1)C(=O)O; NMePhe(4-CF3) = CN[C@@H](Cc1ccc(C(F)(F)F)cc1)C(=O)O; Pro(trans-4-Ph) = O=C(O)[C@@H]1C[C@@H](c2ccccc2)CN1; NMePhe(4-Cl) = CN[C@@H](Cc1ccc(Cl)cc1)C(=O)O; NMePhe(4-Me) = CN[C@@H](Cc1ccc(C)cc1)C(=O)O; NMeNle(6-CHF2) = CN[C@@H](CCCCC(F)F)C(=O)O; NMePhe(2-Cl) = CN[C@@H](Cc1ccccc1Cl)C(=O)O; NMedβ3hAla = C[C@H](CC(=O)[*:2])N(C)[*:1]; NMeAla(cPent) = CN[C@@H](CC1CCCC1)C(=O)O; NMeGly(cPent) = CN[C@H](C(=O)O)C1CCCC1; Phe(3-I) = N[C@@H](Cc1cccc(I)c1)C(=O)O; NMe3Pal = CN[C@@H](Cc1cccnc1)C(=O)O; NMeGly(cBu) = CN[C@H](C(=O)O)C1CCC1; NMeCha = CN[C@@H](CC1CCCCC1)C(=O)O; Hyp = O=C(O)[C@@H]1C[C@@H](O)CN1; NMeChg = CN[C@H](C(=O)O)C1CCCCC1; NMeI = CC[C@H](C)[C@H](NC)C(=O)O; NMeD = CN[C@@H](CC(=O)O)C(=O)O; NMeL = CN[C@@H](CC(C)C)C(=O)O; NMeV = CN[C@H](C(=O)O)C(C)C; d(β3hA) = C[C@@H](N)CC(=O)O; NMeC = CN[C@@H](CS)C(=O)O; NMeS = CN[C@@H](CO)C(=O)O; NPhGly = O=C(O)CNc1ccccc1; Pip = O=C(O)[C@@H]1CCCCN1; Morpholide = C1CN(*)CCO1; NMeA = CN[C@@H](C)C(=O)O; NMeAib = CNC(C)(C)C(=O)O; Nle = CCCC[C@H](N)C(=O)O; Piperidide = C1CCN(*)CC1; Pyrrolidide = C1CCN(*)C1; dNMeA = CN[C@H](C)C(=O)O; Ac5c = NC1(C(=O)O)CCCC1; Aze = O=C(O)[C@@H]1CCN1; Ac4c = NC1(C(=O)O)CCC1; NEtG = CCNCC(=O)O; Sar = CNCC(=O)O; Propyl = CCC*

Experiments:
[1] = target: protein-protein interaction between Kras and SOS1 (biotin-tagged human Kras loaded with GDP, His-tagged human SOS1) (Homo sapiens (Human), UniProt P01116, G12D); test: Protein-protein interaction inhibition between Kras and SOS1 (KrasG12D-SOS PPI) using AlphaScreen; assay type: biochemical; settings: AlphaScreen; biotin-tagged human Kras loaded with GDP, His-tagged human SOS1; read-out: KRAS G12D-SOS PPI IC50;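 note: kras produced in E. coli, Ni-coupled donor beads and streptavidin acceptor beads, excitation 680 nm with emission detected at 520–620 nm via singlet oxygen transfer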
[2] = test system: Human pancreatic cancer cell line AsPC-1 (G12D mutation Kras); test: AsPC-1 cell growth inhibition (AsPC-1 CGI); assay type: cell-based; settings: read-out: AsPC-1 cell growth inhibition, 50% growth inhibitory concentration (IC50 value); 96 hours, CellTiter-Glo, values classified in ranges

Row | Compound | IC50 [1] | IC50 [2]
1 | CC[C@H](C)[C@@H]1NC(=O)[C@H](CC(C)C)N(C)C(=O)C[C@@H](C(=O)N2CCCCC2)N(C)C(=O)[C@H](C2CCCCC2)N(C)C(=O)C2(CCCC2)NC(=O)[C@@H]2C[C@@H](c3ccccc3)CN2C(=O)[C@H](CCc2ccc(C(F)(F)F)c(Cl)c2)NC(=O)CN(C)C(=O)[C@H](CC2CCCCC2)N(C)C(=O)[C@@H]2CCCN2C(=O)CN(C)C1=O [Compound 255] ([NMeL]I[Sar]P[NMeCha][Sar][hPhe(3-Cl-4-CF3)][Pro(trans-4-Ph)][Ac5c][NMeChg][NMeD]-Piperidide; lactam N-11) | 7.8 nM | > 500 nM
2 | CC[C@H](C)[C@@H]1NC(=O)CSC[C@@H](C(=O)N(C)C)N(C)C(=O)[C@H]([C@@H](C)CC)N(C)C(=O)C2(CCCC2)NC(=O)[C@@H]2CCCN2C(=O)[C@H](CCc2ccc(C(F)(F)F)c(Cl)c2)NC(=O)CN(C)C(=O)[C@H](Cc2ccc(C)cc2)N(C)C(=O)CN(C)C(=O)CN(C)C1=O [Compound 2173, (3S,9S,18S,24R,27S,33S)-18,27-bis[(2S)-butan-2-yl]-3-[2-[3-chloro-4-(trifluoromethyl)phenyl]ethyl]—N,N,7,10,13,16,25,28-octamethyl-9-[(4-methylphenyl)methyl]-2,5,8,11,14,17,20,26.,29,32-decaoxospiro[22-thia-1,4,7,10,13,16,19,25,28,31-decazabicyclo[31.3.0]hexatriacontane-30,1-cyclopentane]-24-carboxamide] ({CH2CO}-I[Sar][Sar][NMePhe(4-Me)][Sar][hPhe(3-Cl-4-CF3)]P[Ac5c][NMeI][NMeC]-NMe2; thioether N-10) | 6 nM | > 500 nM
3 | CCO[C@@H]1C[C@H]2C(=O)NC3(CCC3)C(=O)N(C)[C@@H](C3CCCC3)C(=O)N(C)[C@H](C)CC(=O)N(C)[C@@H](CC(C)C)C(=O)N[C@@H]([C@@H](C)CC)C(=O)N(C)[C@@H](C)C(=O)N3CC[C@H]3C(=O)N(CC)[C@@H](Cc3ccc(C(F)(F)F)cc3)C(=O)N(C)CC(=O)N[C@@H](CCc3cc(F)c(C(F)(F)F)c(F)c3)C(=O)N2C1 [Compound 132] (cyclo([Ac4c][NMeGly(cPent)][NMedβ3hAla][NMeL]I[NMeA][Aze][NEtPhe(4-CF3)][Sar][hPhe(3,5-F2-4-CF3)][Hyp](Et))) | 0.96 nM | ≤ 20 nM
4 | CC[C@H](C)[C@@H]1NC(=O)[C@H](CC(C)C)N(C)C(=O)C[C@@H](C(=O)N2CCOCC2)N(C)C(=O)[C@H]([C@@H](C)CC)N(C)C(=O)C2(CCCC2)NC(=O)[C@@H]2CCCN2C(=O)[C@H](CCc2ccc(C(F)(F)F)c(Cl)c2)NC(=O)CN(CC)C(=O)[C@H](Cc2ccc(C(F)(F)F)cc2)N(C)C(=O)[C@@H]2CCN2C(=O)[C@H](C)N(C)C1=O [Compound 1151] ([NMeL]I[NMeA][Aze][NMePhe(4-CF3)][NEtG][hPhe(3-Cl-4-CF3)]P[Ac5c][NMeI][NMeD]-Morpholide; lactam N-11) | 5.2 nM | ≤ 20 nM
5 | CCCC[C@@H]1NC(=O)[C@H](Cc2cccc(I)c2)NC(=O)CN(C)C(=O)[C@H](CC2CCCC2)N(C)C(=O)[C@@H]2CCN2C(=O)[C@H](C)N(C)C(=O)[C@H]([C@@H](C)CC)NC(=O)[C@@H]2CCCCN2C(=O)C[C@@H](C(=O)N2CCCCC2)N(C)C(=O)[C@H](CC(C)C)NC(=O)C(C)(C)N(C)C1=O [Compound 1424] ([Pip]I[NMeA][Aze][NMeAla(cPent)][Sar][Phe(3-I)][Nle][NMeAib]L[NMeD]-Piperidide; lactam N-11) | 200 nM | > 500 nM
6 | CC[C@H](C)[C@@H]1NC(=O)[C@H](CC(C)C)N(C)C(=O)C[C@@H](C(=O)N2CCCCC2)N(C)C(=O)[C@H](C2CCCC2)N(C)C(=O)C2(CCCC2)NC(=O)[C@@H]2CCCN2C(=O)[C@H](CCc2ccc(C(F)(F)F)c(Cl)c2)NC(=O)CN(C)C(=O)[C@H](Cc2ccc(Cl)cc2)N(C)C(=O)[C@@H]2CCN2C(=O)[C@H](C)N(C)C1=O [Compound 120] ([NMeL]I[NMeA][Aze][NMePhe(4-Cl)][Sar][hPhe(3-Cl-4-CF3)]P[Ac5c][NMeGly(cPent)][NMeD]-Piperidide; lactam N-11) | 0.55 nM | ≤ 20 nM
7 | CCCOC[C@@H]1NC(=O)[C@H](CC(C)C)N(C)C(=O)C[C@@H](C(=O)N2CCCCC2)N(C)C(=O)[C@H](C(C)C)N(C)C(=O)C2(CCCC2)NC(=O)[C@@H]2CCCN2C(=O)[C@H](CCc2ccc(C(F)(F)F)c(Cl)c2)NC(=O)CN(C)C(=O)[C@H](CC2CCCCC2)N(C)C(=O)[C@@H]2CCN2C(=O)[C@H](C)N(C)C1=O [Compound 1831] ([NMeL]S(Propyl)[NMeA][Aze][NMeCha][Sar][hPhe(3-Cl-4-CF3)]P[Ac5c][NMeV][NMeD]-Piperidide; lactam N-11) | 71 nM | > 500 nM
8 | CCCOC[C@H]1C(=O)N(C)CC(=O)N[C@@H](CCc2ccc(C(F)(F)F)c(Cl)c2)C(=O)N2CCC[C@H]2C(=O)NC2(CCCC2)C(=O)N(C)[C@@H](C2CCCC2)C(=O)N(C)[C@H](C(=O)N2CCCC2)CC(=O)N(C)[C@@H](CC(C)C)C(=O)N[C@@H]([C@@H](C)CC)C(=O)N(C)[C@@H](C)C(=O)N2CC[C@H]2C(=O)N1C [Compound 836] ([NMeL]I[NMeA][Aze][NMeS](Propyl)[Sar][hPhe(3-Cl-4-CF3)]P[Ac5c][NMeGly(cPent)][NMeD]-Pyrrolidide; lactam N-11) | 0.66 nM | ≤ 20 nM
9 | CC[C@H](C)[C@@H]1NC(=O)[C@H](CC(C)C)N(C)C(=O)C[C@@H](C(=O)N2CCCCC2)N(C)C(=O)[C@H](CCCCC(F)F)N(C)C(=O)C2(CCCC2)NC(=O)[C@@H]2CCCN2C(=O)[C@H](CCc2ccc(C(F)(F)F)c(Cl)c2)NC(=O)CN(C)C(=O)[C@H](CC2CCCCC2)N(C)C(=O)[C@@H]2CCN2C(=O)[C@H](C)N(C)C1=O [Compound 1123] ([NMeL]I[NMeA][Aze][NMeCha][Sar][hPhe(3-Cl-4-CF3)]P[Ac5c][NMeNle(6-CHF2)][NMeD]-Piperidide; lactam N-11) | 180 nM | > 500 nM
10 | CC[C@H](C)[C@@H]1NC(=O)[C@H](C)N(C)C(=O)C[C@@H](C(=O)N(C)C)N(C)C(=O)[C@H](C(C)C)N(C)C(=O)C2(CCCC2)NC(=O)[C@H](Cc2ccccc2Cl)N(C)C(=O)[C@H](CCc2ccc(C(F)(F)F)c(Cl)c2)NC(=O)CN(C)C(=O)[C@H](CC2CCCCC2)N(C)C(=O)CN(C)C(=O)CN(C)C1=O [Compound 317] ([NMeA]I[Sar][Sar][NMeCha][Sar][hPhe(3-Cl-4-CF3)][NMePhe(2-Cl)][Ac5c][NMeV][NMeD]-NMe2; lactam N-11) | 30 nM | > 500 nM
11 | CC[C@H](C)[C@@H]1NC(=O)[C@H](CC(C)C)N(C)C(=O)C[C@@H](C(=O)N2CCCCC2)N(C)C(=O)[C@H](CC2CCCCC2)N(C)C(=O)C2(CCCC2)NC(=O)[C@@H]2CCCN2C(=O)[C@H](CCc2ccc(C(F)(F)F)c(Cl)c2)NC(=O)CN(C)C(=O)[C@H](CC2CCCCC2)N(C)C(=O)[C@@H]2CCN2C(=O)[C@H](C)N(C)C1=O [Compound 87] ([NMeL]I[NMeA][Aze][NMeCha][Sar][hPhe(3-Cl-4-CF3)]P[Ac5c][NMeCha][NMeD]-Piperidide; lactam N-11) | 45 nM | > 500 nM
12 | CC[C@H](C)[C@@H]1NC(=O)[C@H](C)N(C)C(=O)C[C@@H](C(=O)N2CCCCC2)N(C)C(=O)[C@H](C2CCC2)N(C)C(=O)C(C)(C)N(C)C(=O)CN(c2ccccc2)C(=O)[C@H](CCc2ccc(C(F)(F)F)c(Cl)c2)NC(=O)CN(C)C(=O)[C@H](CC2CCCCC2)N(C)C(=O)CN(C)C(=O)CN(C)C1=O [Compound 2150] ([NMeA]I[Sar][Sar][NMeCha][Sar][hPhe(3-Cl-4-CF3)][NPhGly][NMeAib][NMeGly(cBu)][NMeD]-Piperidide; lactam N-11) | 5.7 nM | > 500 nM
13 | CC[C@H](C)[C@@H]1NC(=O)[C@H](CC(C)C)N(C)C(=O)C[C@@H](C(=O)N2CCCCC2)N(C)C(=O)[C@H]([C@@H](C)CC)N(C)C(=O)C2(CCCC2)NC(=O)[C@@H]2CCCN2C(=O)[C@H](CCc2ccc(C(F)(F)F)c(Cl)c2)NC(=O)CN(C)C(=O)[C@H](Cc2ccc(Cl)cc2)N(C)C(=O)[C@@H]2CCN2C(=O)[C@H](C)N(C)C1=O [Compound 253] ([NMeL]I[NMeA][Aze][NMePhe(4-Cl)][Sar][hPhe(3-Cl-4-CF3)]P[Ac5c][NMeI][NMeD]-Piperidide; lactam N-11) | 0.99 nM | ≤ 20 nM
14 | CCO[C@@H]1C[C@H]2C(=O)NC3(CCCC3)C(=O)N(C)[C@@H](C3CCCC3)C(=O)N(C)[C@H](C(=O)N3CCOCC3)CC(=O)N(C)[C@@H](CC(C)C)C(=O)N[C@@H]([C@@H](C)CC)C(=O)N(C)[C@@H](C)C(=O)N3CC[C@H]3C(=O)N(C)[C@@H](CC3CCCCC3)C(=O)N(C)CC(=O)N[C@@H](CCc3cc(F)c(C(F)(F)F)c(F)c3)C(=O)N2C1 [Compound 1250] ([NMeL]I[NMeA][Aze][NMeCha][Sar][hPhe(3,5-F2-4-CF3)][Hyp](Et)[Ac5c][NMeGly(cPent)][NMeD]-Morpholide; lactam N-11) | 0.63 nM | ≤ 20 nM
15 | CC[C@H](C)[C@@H]1NC(=O)[C@H](C)N(C)C(=O)C[C@@H](C)NC(=O)[C@H](C2CCCC2)N(C)C(=O)C2(CCCC2)NC(=O)[C@@H]2CCCN2C(=O)[C@H](CCc2ccc(C(F)(F)F)c(Cl)c2)NC(=O)[C@@H](C)N(C)C(=O)[C@H](Cc2cccnc2)N(C)C(=O)[C@@H]2CCN2C(=O)[C@H](C)N(C)C1=O [Compound 1011] (cyclo([Ac5c][NMeGly(cPent)][d(β3hA)][NMeA]I[NMeA][Aze][NMe3Pal][dNMeA][hPhe(3-Cl-4-CF3)]P)) | 38 nM | > 500 nM
